From patent US7183295B2, “PPAR-activating compound and pharmaceutical composition comprising the compound” (Kowa Co., Ltd., priority 2003, dated 2007) come the findings set out here.

Format in all cases: cell-based
In experiment [1] the target is T1, human PPARα (166–467aa) ligand binding domain (Homo sapiens, UniProt Q07869).
T1 construct: human PPARα (166–467aa); expressed in transfected cells; host or cells: COS-7
T1 sequence (Q07869 166-467): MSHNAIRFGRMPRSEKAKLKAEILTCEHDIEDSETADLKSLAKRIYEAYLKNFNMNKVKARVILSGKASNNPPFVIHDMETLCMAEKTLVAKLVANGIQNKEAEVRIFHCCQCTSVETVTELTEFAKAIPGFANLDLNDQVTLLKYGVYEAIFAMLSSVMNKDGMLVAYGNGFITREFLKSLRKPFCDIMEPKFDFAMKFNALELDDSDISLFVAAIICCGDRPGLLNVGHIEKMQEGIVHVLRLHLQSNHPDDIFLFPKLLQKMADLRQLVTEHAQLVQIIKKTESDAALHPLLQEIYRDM
Kind of experiment: PPAR transfection (Gal4-LBD luciferase reporter) assay, hPPARα. To be noted: read-out: hPPAR, EC50 α (agonist activity). Here is the method: (§1) COS-7 cells, which is African green monkey kidney cell line, were used for all transfection assays. Cells were cultured in DMEM medium supplemented with 10% fetal bovine serum, glutamic acid, and an antibiotic under humidified 5% CO2 atmosphere.
(§2) Cells were transfected by lipofectamine reagent with a mixture containing expression plasmid, firefly luciferase reporter plasmid. And a β-galactosidase expression plasmid used as an internal control for transfection efficiency.
(§3) Transiently transfected cells were incubated with DMEM with 0.2% FCS with or without compound. And after 16 hours, luciferase activity and β-galactosidase activity of cell lysate were measured.
(§4) Each compound was dissolved in and diluted with dimethyl sulfoxide (DMSO), and the DMSO concentration of the DMEM medium (containing 0.2% serum) was adjusted to 0.1% upon treatment of cells.
(Reporter assays use an easily measured gene product as a stand-in for the process of interest.)

Experiment [2] has as its target T2, human PPARγ (182–505aa) ligand binding domain (Homo sapiens, UniProt P37231).
T2 construct: γ(182–505aa); expressed in transfected cells; host or cells: COS-7
T2 sequence (P37231 182-505): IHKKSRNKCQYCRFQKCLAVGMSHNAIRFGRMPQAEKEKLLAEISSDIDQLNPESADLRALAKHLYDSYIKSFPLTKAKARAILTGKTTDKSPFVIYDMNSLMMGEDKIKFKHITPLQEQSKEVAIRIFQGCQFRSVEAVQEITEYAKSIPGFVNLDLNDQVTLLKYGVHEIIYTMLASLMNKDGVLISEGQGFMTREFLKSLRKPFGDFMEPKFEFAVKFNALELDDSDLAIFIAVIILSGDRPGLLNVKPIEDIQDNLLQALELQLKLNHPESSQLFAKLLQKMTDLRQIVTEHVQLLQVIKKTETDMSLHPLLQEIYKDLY
Kind of experiment: PPAR transfection (Gal4-LBD luciferase reporter) assay, hPPARγ. To be noted: read-out: hPPAR, EC50 γ (agonist activity). Here is the method:
as §1, §2, §3, §4

In experiment [3] the target is T3, human PPARδ (137–441aa) ligand binding domain (Homo sapiens, UniProt Q03181).
T3 construct: δ (137–441aa); expressed in transfected cells; host or cells: COS-7
T3 sequence (Q03181 137-441): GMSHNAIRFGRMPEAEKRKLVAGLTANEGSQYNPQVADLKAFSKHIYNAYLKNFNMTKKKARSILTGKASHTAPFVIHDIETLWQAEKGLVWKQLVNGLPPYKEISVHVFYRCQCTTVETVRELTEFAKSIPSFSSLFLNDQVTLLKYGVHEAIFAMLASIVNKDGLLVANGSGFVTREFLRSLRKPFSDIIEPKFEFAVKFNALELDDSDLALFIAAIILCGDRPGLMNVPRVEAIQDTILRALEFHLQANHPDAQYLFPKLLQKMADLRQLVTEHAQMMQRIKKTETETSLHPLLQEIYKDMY
Kind of experiment: PPAR transfection (Gal4-LBD luciferase reporter) assay, hPPARδ. To be noted: read-out: hPPAR, EC50 δ (agonist activity). As to the method: as §1, §2, §3, §4

The mark [4] stands for this setting: transfected COS-7 cells, 16 hours, luciferase activity.

Read-outs that look alike come from different tables or passages of the source.

As for `CCC(Oc1cccc(CCN(CCOc2ccc(OC)cc2)c2nc3ccccc3o2)c1)C(=O)O` (stereo not shown) [Example 45, 2-[3-[2-[N-(Benzoxazol-2-yl)-N-2-(4-methoxyphenoxy)ethyl]aminoethyl]phenoxy]butyric acid], the values for the EC50 in experiment [1] (setting [4]), in experiment [2] (setting [4]) and in experiment [3] (setting [4]) were 10 nM, 6300 nM and 1800 nM, respectively.
For `COc1ccc(OCCCN(Cc2cccc(OC(C)C(=O)O)c2)c2nc3ccccc3s2)cc1` (stereo not shown) [Example 96], in that order: 1 nM, 1100 nM and 1200 nM.
Take `CC(Oc1cccc(CCN(CCOc2ccc(F)cc2)c2nc3cc(F)ccc3o2)c1)C(=O)O` (stereo not shown) [Example 35, 2-[3-[2-[N-(5-Fluorobenzoxazol-2-yl)-N-2-(4-fluorophenoxy)ethyl]aminoethyl]phenoxy]propionic acid]: the EC50 is 20 nM in experiment [1] (setting [4]), 1200 nM in experiment [2] (setting [4]) and 1600 nM in experiment [3] (setting [4]).
For `CCC(Oc1cccc(CN(CCOc2ccc(OS(C)(=O)=O)cc2)c2nc3ccccc3o2)c1)C(=O)O` (stereo not shown) [Example 231], in that order: 13 nM, > 10000 nM and > 100000 nM.
Take `O=C(O)COc1cccc(CN(CCCOc2ccccc2)c2nc3ccccc3o2)c1` [Example 12, 3-[[N-(Benzoxazol-2-yl)-N-3-phenoxypropyl]aminomethyl]phenoxyacetic acid]: the EC50 in experiment [1] (setting [4]) is 1200 nM; in experiment [2] (setting [4]) it was > 100000 nM; in experiment [3] (setting [4]) it was > 100000 nM.
As to `CCC(Oc1cccc(CCN(CCOc2ccc(OC)cc2)c2nc3cc(OC)ccc3o2)c1)C(=O)O` (stereo not shown) [Example 48, 2-[3-[2-[N-(5-Methoxybenzoxazol-2-yl)-N-2-(4-methoxyphenoxy)ethyl]aminoethyl]phenoxy]butyric acid], the EC50 in experiment [1] (setting [4]) amounted to 80 nM; in experiment [2] (setting [4]), 5200 nM; in experiment [3] (setting [4]), 2000 nM.
On to `CCC(Oc1cccc(CCN(CCOc2ccccc2)c2nc3ccccc3o2)c1)C(=O)O` (stereo not shown) [Example 41, 2-[3-[2-[N-(Benzoxazol-2-yl)-N-2-phenoxyethyl]aminoethyl]phenoxy]butyric acid], for which the EC50 in experiment [1] (setting [4]) is 40 nM; in experiment [2] (setting [4]), 2000 nM; in experiment [3] (setting [4]), > 50000 nM.
Consider `CC(Oc1cccc(CN(CCCOc2ccccc2)c2nc3cc4c(cc3o2)OCO4)c1)C(=O)O` (stereo not shown) [Example 159], for which the figures for the EC50 in experiment [1] (setting [4]), in experiment [2] (setting [4]) and in experiment [3] (setting [4]) were 9 nM, > 10000 nM and 1500 nM, respectively.
As to `COc1ccc2oc(N(CCOc3ccc(F)cc3)CCc3cccc(OC(C)C(=O)O)c3)nc2c1` (stereo not shown) [Example 37, 2-[3-[2-[N-2-(4-Fluorphenoxy)ethyl-N-(5-methoxybenzoxazol-2-yl)]aminoethyl]phenoxy]propionic acid], the EC50 in experiment [1] (setting [4]) was determined as 70 nM; in experiment [2] (setting [4]) it was 4200 nM; in experiment [3] (setting [4]), 1500 nM.
For `CCC(Oc1cccc(CCN(CCCOc2ccccc2)c2nc3ccccc3o2)c1)C(=O)O` (stereo not shown) [Example 38, 2-[3-[2-[N-(Benzoxazol-2-yl)-N-3-phenoxypropyl]aminoethyl]phenoxy]butyric acid], in that order: 50 nM, 1500 nM and 1400 nM.
On to `Cc1ccc2oc(N(CCCOc3ccccc3)Cc3cccc(OC(C)C(=O)O)c3)nc2c1` (stereo not shown) [Example 155], for which the results for the EC50 in experiment [1] (setting [4]), in experiment [2] (setting [4]) and in experiment [3] (setting [4]) were 11 nM, > 10000 nM and 1800 nM, respectively.
On to `CCC(Oc1cccc(CN(CCCOc2ccccc2)c2nc3cc(F)ccc3o2)c1)C(=O)O` (stereo not shown) [Example 132], for which the results for the EC50 in experiment [1], in experiment [2] and in experiment [3] were 3 nM, 1000 nM and 1100 nM, respectively.
As to `CCC(Oc1cccc(CN(CCCOc2ccc(OC)cc2)c2nc3ccccc3o2)c1)C(=O)O` (stereo not shown) [Example 14, 2-[3-[[N-(Benzoxazol-2-yl)-N-3-(4-methoxyphenoxy)propyl]aminomethyl]phenoxy]butyric acid], the EC50 in experiment [2] (setting [4]) was > 100000 nM; in experiment [3] (setting [4]), 1700 nM.
As for `CCC(Oc1cccc(CCN(CCCOc2ccc(F)cc2)c2nc3cc(OC)ccc3o2)c1)C(=O)O` (stereo not shown) [Example 51, 2-[3-[2-[N-3-(4-Fluorophenoxy)propyl-N-(5-methoxybenzoxazol-2-yl)]aminoethyl]phenoxy]butyric acid], the figures for the EC50 in experiment [1] (setting [4]), in experiment [2] (setting [4]) and in experiment [3] (setting [4]) were 30 nM, 3800 nM and 1400 nM, respectively.
For the compound `COc1ccc(OCCCN(Cc2cccc(OC(C)(C)C(=O)O)c2)c2nc3ccccc3o2)cc1` [Example 15, 2-[3-[[N-(Benzoxazol-2-yl)-N-3-(4-methoxyphenoxy)propyl]aminomethyl]phenoxy]-2-methylpropionic acid], the EC50 in experiment [1] (setting [4]) is 50 nM; in experiment [2] (setting [4]) it was > 100000 nM; in experiment [3] (setting [4]), 1500 nM.
In the case of `CC[C@@H](Oc1cccc(CN(CCCOc2ccccc2)c2nc3ccccc3o2)c1)C(=O)O` [Example 83, (R)-2-[[3-[N-(Benzoxazol-2-yl)-N-3-phenoxypropyl]aminomethyl]phenoxy]butyric acid], the EC50 in experiment [1] (setting [4]) turned out to be 2 nM; in experiment [2] (setting [4]) it was 910 nM; in experiment [3] (setting [4]), 1600 nM.
For the compound `CC(Oc1cccc(CCN(CCOc2ccc(F)cc2)c2nc3ccccc3o2)c1)C(=O)O` (stereo not shown) [Example 34, 2-[3-[2-[N-(Benzoxazol-2-yl)-N-2-(4-fluorophenoxy)ethyl]aminoethyl]phenoxy]propionic acid], the EC50 stood at 60 nM in experiment [1] (setting [4]), 1200 nM in experiment [2] (setting [4]) and 1600 nM in experiment [3] (setting [4]).
In the case of `COc1ccc2oc(N(CCOc3ccccc3)CCc3cccc(OC(C)C(=O)O)c3)nc2c1` (stereo not shown) [Example 44, 2-[3-[2-[N-(5-Methoxybenzoxazol-2-yl)-N-2-phenoxyethyl]aminoethyl]phenoxy]propionic acid], the figures for the EC50 in experiment [1] (setting [4]), in experiment [2] (setting [4]) and in experiment [3] (setting [4]) were 80 nM, > 100000 nM and 1600 nM, respectively.
Turning to `CC(Oc1cccc(CN(CCCC(=O)c2ccccc2)c2nc3ccccc3o2)c1)C(=O)O` (stereo not shown) [Example 93, 2-[3-[[N-(Benzoxazol-2-yl)-N-(4-oxo-4-phenylbutyl)]aminomethyl]phenoxy]propionic acid], the EC50 in experiment [1] (setting [4]) was 9 nM; in experiment [2] (setting [4]) it was > 10000 nM; in experiment [3] (setting [4]), 5100 nM.
Take `CCC(Oc1cccc(CN(CCCOc2ccccc2)c2nc3ccccc3o2)c1)C(=O)O` (stereo not shown) [Example 13, 2-[3-[[N-(Benzoxazol-2-yl)-N-3-phenoxypropyl]aminomethyl]phenoxy]butyric acid]: the EC50 in experiment [1] (setting [4]) was 10 nM; in experiment [2] (setting [4]), > 50000 nM; in experiment [3] (setting [4]) it was 2000 nM.
For `CCC(Oc1cccc(CCN(CCCOc2ccc(OC)cc2)c2nc3cc(F)ccc3o2)c1)C(=O)O` (stereo not shown) [Example 49, 2-[3-[2-[N-(5-Fluorobenzoxazol-2-yl)-N-3-(4-methoxyphenoxy)propyl]aminoethyl]phenoxy]butyric acid], in that order: 20 nM, 1500 nM and 1500 nM.
For `CC(C)(Oc1cccc(CCN(CCOc2ccccc2)c2nc3ccccc3o2)c1)C(=O)O` [Example 78, 2-[3-[2-[N-(Benzoxazol-2-yl)-N-2-phenoxyethyl]aminoethyl]phenoxy]-2-methylpropionic acid], in that order: 30 nM, 1100 nM and > 100000 nM.
Turning to `CC[C@@H](Oc1cccc(CN(CCCOc2ccc(OC)cc2)c2nc3ccccc3o2)c1)C(=O)O` [Example 85, (R)-2-[[3-[N-(Benzoxazol-2-yl)-N-3-(4-methoxyphenoxy)propyl]aminomethyl]phenoxy]butyric acid], the values for the EC50 in experiment [2] (setting [4]) and in experiment [3] (setting [4]) were 1100 nM and 1600 nM, respectively.
